Assay results: patent US5869489A, “Trypthophan ureas as neurokinnin antagonists” (Merck & Co., Inc., priority 1997, dated 1999)

How the values were obtained:
human NK1R = molecular target: T1, human NK1R (Homo sapiens, UniProt P25103); assay: Binding assay of human NK1R expressed in COS or CHO cells, displacement of 125I-substance P (Table 1, hNK1); details: human NK1 receptor, 125I-substance P ligand; read-out: hNK1 (IC50 nM)
T1 construct: expressed in transfected cells
Procedure: (§1) A. Receptor Expression in COS
(§2) To express the cloned human neurokinin-1 receptor (NK 1R) transiently in COS, the cDNA for the human NK 1R was cloned into the expression vector pCDM9 which was derived from pCDM 8 (INVITROGEN) by inserting the ampicillin resistance gene (nucleotide 1973 to 2964 from BLUESCRIPT SK+) into the Sac II site. Transfection of 20 μg of the plasmid DNA into 10 million COS cells was achieved by electroporation in 800 μl of transfection buffer (135 mM NaCl, 1.2 mM CaCl2, 1.2 mM MgCl2, 2.4 mM K2 HPO4, 0.6 mM KH2 PO4, 10 mM glucose, 10 mM HEPES pH 7.4) at 260 V and 950 uF using the IBI GENEZAPPER (IBI, New Haven, Conn.). The cells were incubated in 10% fetal calf serum, 2 mM glutamine, 100 U/ml penicillin-streptomycin, and 90% DMEM media (GIBCO, Grand Island, N.Y.) in 5% CO2 at 37° C. for three days before the binding assay. Similar methods were used to express the NK2 receptor.
(§3) B. Stable Expression in CHO
(§4) To establish a stable cell line expressing the cloned human NK1R, the cDNA was subcloned into the vector pRcCMV (INVITROGEN). Transfection of 20 μg of the plasmid DNA into CHO cells was achieved by electroporation in 800 μl of transfection buffer suplemented with 0.625 mg/ml Herring sperm DNA at 300 V and 950 uF using the IBI GENEZAPPER (IBI). The transfected cells were incubated in CHO media (10% fetal calf serum, 100 U/ml pennicilin-streptomycin, 2 mM glutamine, 1/500 hypoxanthine-thymidine(ATCC), 90% IMDM media (JRH BIOSCIENCES, Lenexa, Kans.), 0.7 mg/ml G418 (GIBCO)) in 5% CO2 at 37° C. until colonies were visible. Each colony was separated and propagated. The cell clone with the highest number of human NK1R was selected for subsequent applications such as drug screening. Similar methods were used to express the human NK2 receptor.
(§5) C. Assay Protocol using COS or CHO The binding assay of human NK1R expressed in either COS or CHO cells is based on the use of ^125 I-substance P (^125 I-SP, from DU PONT, Boston, Mass.) as a radioactively labeled ligand which competes with unlabeled substance P or any other ligand for binding to the human NK1R. […] In the binding assay, 500 μl of cells were added to a tube containing 20 μl of 1.5 to 0.25 nM of ^125 I-SP and 5 μl of unlabeled substance P or any other test compound in DMSO. The tubes were incubated at 4° C. or at room temperature for 1 hour with gentle shaking. The bound radioactivity was separated from unbound radioactivity by GF/C filter (BRANDEL, Gaithersburg, Md.) which was pre-wetted with 0.1% polyethylenimine. The filter was washed with 3 ml of wash buffer (50 mM Tris pH 7.5, 5 mM MnCl2, 150 mM NaCl) three times and its radioactivity was determined by gamma counter. A similar assay was used for NK2 except ^125 I-NKA was used as the ligand.

human NK2 receptor = molecular target: T2, human NK2 receptor (Homo sapiens, UniProt P21452); assay: Binding assay of NK2 receptor expressed in COS or CHO cells, displacement of 125I-NKA (Table 1, hNK2); details: human NK2 receptor, 125I-NKA ligand; read-out: hNK2 (IC50 nM)
T2 construct: expressed in transfected cells
T2 sequence (P21452 1-398): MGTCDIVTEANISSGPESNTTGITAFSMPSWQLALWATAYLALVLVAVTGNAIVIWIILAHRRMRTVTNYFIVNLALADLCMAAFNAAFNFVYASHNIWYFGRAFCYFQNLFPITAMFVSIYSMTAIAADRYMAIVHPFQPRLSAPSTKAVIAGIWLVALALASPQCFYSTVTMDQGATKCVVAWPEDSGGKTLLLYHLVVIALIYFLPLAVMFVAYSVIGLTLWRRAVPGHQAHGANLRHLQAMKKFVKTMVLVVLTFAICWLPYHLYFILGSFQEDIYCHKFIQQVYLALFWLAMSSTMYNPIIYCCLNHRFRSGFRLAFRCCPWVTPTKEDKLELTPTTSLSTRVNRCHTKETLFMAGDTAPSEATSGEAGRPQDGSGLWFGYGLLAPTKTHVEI
Procedure: as §1, §2, §3, §4, §5

T1 sequence (P25103 whole entry): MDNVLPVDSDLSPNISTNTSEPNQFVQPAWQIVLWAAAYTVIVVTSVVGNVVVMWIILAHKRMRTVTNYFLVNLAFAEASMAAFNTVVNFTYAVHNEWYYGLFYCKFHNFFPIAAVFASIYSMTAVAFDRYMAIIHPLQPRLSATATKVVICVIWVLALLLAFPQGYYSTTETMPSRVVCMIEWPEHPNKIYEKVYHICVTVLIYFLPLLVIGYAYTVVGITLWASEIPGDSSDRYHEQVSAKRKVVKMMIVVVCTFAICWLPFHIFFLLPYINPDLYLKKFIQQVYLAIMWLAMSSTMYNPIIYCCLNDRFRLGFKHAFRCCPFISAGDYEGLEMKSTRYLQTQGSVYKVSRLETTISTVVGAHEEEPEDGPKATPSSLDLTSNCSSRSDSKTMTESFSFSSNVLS

Compound | IC50 (human NK1R) | IC50 (human NK2 receptor)
CN(Cc1cccc(C(F)(F)F)c1)C(=O)[C@H](Cc1c[nH]c2ccccc12)NC(=O)N1CCC2(CC1)CN(S(C)(=O)=O)c1ccccc12 [Example 26, N-(3-Trifluoromethylphenyl)methyl-N-methyl-2-(S)-((1-methanesulfonyl-spiroindoline-3,4'-piperidino)-carbonyl-amino)-3-(3-indolyl)propionamide] | 7.5 nM | 127 nM
CN(Cc1cc(Cl)cc(Cl)c1)C(=O)[C@H](Cc1c[nH]c2ccccc12)NC(=O)N1CCC2(CC1)CN(S(C)(=O)=O)c1ccccc12 [Example 27, N-(3,5-Dichlorophenyl)methyl-N-methyl-2-(S)-((1-methanesulfonyl-spiroindoline-3,4'-piperidino)-carbonyl-amino)-3-(3-indolyl)propionamide] | 1 nM | 180 nM
Cc1cc(C)cc(CN(C)C(=O)[C@H](Cc2c[nH]c3ccccc23)NC(=O)N2CCC3(CC2)CN(S(C)(=O)=O)c2ccccc23)c1 [Example 28, N-(3,5-Dimethylphenyl)methyl-N-methyl-2-(S)-((1-methanesulfonyl-spiroindoline-3,4'-piperidino)-carbonyl-amino)-3-(3-indolyl)propionamide] | 3 nM | > 300 nM
Cc1cc(Cl)cc(CN(C)C(=O)[C@H](Cc2c[nH]c3ccccc23)NC(=O)N2CCC3(CC2)CN(S(C)(=O)=O)c2ccccc23)c1 [Example 29, N-((3-Chloro-5-methyl)phenyl)methyl-N-methyl-2-(S)-((1-methanesulfonyl-Spiroindoline-3,4'-piperidino)-carbonyl-amino)-3-(3-indolyl)propionamide] | 2 nM | 500 nM
CN(Cc1ccccc1)C(=O)[C@@H](Cc1c[nH]c2ccccc12)NC(=O)N1CCC2(C=Cc3ccccc32)CC1 [Example 31, N-Benzyl-N-methyl-2-(R)-((spiro-1H-indene-1,4'-piperidino)-carbonyl-amino)-3-(3-indolyl)propionamide] | 600 nM | 130 nM
CN(Cc1ccccc1)C(=O)[C@@H](Cc1c[nH]c2ccccc12)NC(=O)N1CCC2(CC1)CN(S(C)(=O)=O)c1ccccc12 [Example 32, N-Benzyl-N-methyl-2-(R)-((1-methanesulfonyl-spiroindoline-3,4'-piperidino)-carbonyl-amino)-3-(3-indolyl)propionamide] | 200 nM | 180 nM
CN(Cc1ccccc1)C(=O)[C@@H](Cc1c[nH]c2ccccc12)NC(=O)N1CCC(c2ccccc2)CC1 [Example 33] | 750 nM | 250 nM
CN(Cc1ccccc1)C(=O)[C@H](CCc1ccccc1)NC(=O)N1CCC2(CC1)CN(S(C)(=O)=O)c1ccccc12 [Example 34, N-Benzyl-N-methyl-2-(S)-((1-methanesulfonyl-spiroindoline-3,4'-piperidino)-carbonyl-amino)-4-phenylbutyramide] | 400 nM | 60 nM
CN(Cc1ccccc1)C(=O)[C@H](COCc1ccccc1)NC(=O)N1CCC2(CC1)CN(S(C)(=O)=O)c1ccccc12 [Example 35, N-Benzyl-N-methyl-2-(S)-((1-methanesulfonyl-spiroindoline-1,4'-piperidino)-carbonyl-amino)-3-benzyloxypropionamide] | 300 nM | 60 nM
CN(Cc1ccccc1)C(=O)[C@H](Cc1ccccc1)NC(=O)N1CCC2(C=Cc3ccccc32)CC1 [Example 36, N-Benzyl-N-methyl-2-(S)-((spiroindine-1,4'-piperidino)-carbonyl-amino)-3-phenylpropionamide] | 300 nM | 200 nM
CN(Cc1ccccc1)C(=O)[C@@H](NC(=O)N1CCC2(C=Cc3ccccc32)CC1)c1ccccc1 [Example 37, N-Benzyl-N-methyl-2-(S)-((spiroindine-1,4'-piperidino)-carbonyl-amino)-2-phenylacetamide] | 575 nM | 200 nM
N-(1(R)-Phenylpropyl)-N-methyl-2(S)-((spiroindane-1,4'-piperidino)-carbonyl-amino)-3-(3-indolyl)propionamide [Example 24] | 1000 nM | 50 nM
N-(1(S)-Phenylpropyl)-N-methyl-2(S)-((spiroindane-1,4'-piperidino)-carbonyl-amino)-3-(3-indolyl)propionamide [Example 23] | 650 nM | 30 nM
N-(1(S)-phenyl)ethyl-N-methyl-2-(S)-((1-methanesulfonyl-spiroindoline-3,4'- piperidino)-carbonyl-amino)-3-(3-indolyl)propionamide [Example 30] | 10 nM | 70 nM
